According to patent US20140221499A1, “NOVEL RODENT CONTROL AGENTS AND USES THEREOF” (priority 2011, published 2014):

Assays:
[1] = biological target: TAAR1 (Mus musculus, UniProt Q923Y8); assay: TAAR1 reporter gene assay; format: cell-based
Procedure: HEK293 cells were co-transfected with TAAR expression plasmids and a cAMPdependent reporter gene encoding secreted alkaline phosphatase (CRE-SEAP). Transfected cells were incubated with urine extracts from different mammalian species, and phosphatase activity was quantified with a fluorescent substrate as a reporter for TAAR activation. […] Responses to predator odors were not observed in control cells transfected with reporter gene alone. Three other TAARs-TAAR7f, TAAR8c, and TAAR9-detected natural products common to urine of numerous mammalian species, including mouse, rat, human, and carnivores (FIG. 1B, FIG. 11). However, these receptors detect carnivore and non-carnivore urines with similar sensitivity. We reasoned that TAAR4 detected a specific chemical enriched in predator urine, and that this cue can function as a kairomone. […] Basic dichloromethane extracts of bobcat urine were separated by silica gel chromatography, and fractions analyzed with the reporter gene assay (FIG. 2A). Several chromatography fractions containing the TAAR4 activator were obtained and analyzed by mass spectrometry (FIG. 2B).
TAAR functional assays. […] SEAP activity is measured as fluorescence resulting from dephosphorylation of a substrate, 4-methylumbelliferyl phosphate. Fluorescence values were obtained using an EnVision plate reader (Perkin Elmer) and are reported directly without normalization. […]

[2] = tested on: Sprague-Dawley rats; assay: Open field odor avoidance; format: in vivo, rat; settings: ten minute exposure, 12 animals ±SEM; 1 ml urine or 5 μl amine
Procedure: We next examined behavioral responses of rodents to 2-phenylethylamine. […] Behaviors of rats in a square-shaped arena were recorded and analyzed following placement of test stimuli in a pseudorandom corner (FIG. 5A). […] Thus, 2-phenylethylamine, in the absence of other predator odor cues, was sufficient to evoke rat avoidance behavior.
Open field behavioral analysis. Rat behavioral responses to odors in the open field were measured as described previously (Fendt M (2006) Exposure to urine of canids and felids, but not of herbivores, induces defensive behavior in laboratory rats. Journal of chemical ecology 32(12):2617-2627) with the following modifications. Adult Sprague-Dawley rats (240-340 g; Janvier, Le Genest St. Isle, France) were placed in the center of a 45 cm×45 cm Plexiglass arena (TSE Systems, Bad Homburg, Germany) equipped with infrared sensors (distance 14 mm, illumination 80-120 lux). The arena contained glass dishes (36 mm) in each corner, with one dish containing test stimuli. Prior to testing, animals were habituated to the arena by introducing them for three consecutive days. […] Location of the rats was automatically recorded using the infrared detectors and analyzed (TSE Systems software). Statistical significance was measured using Wilcoxon Signed Test (**p<0.01; comparison with chance level (25%)). […]

TAAR1, sequence (Q923Y8 whole entry, the tested form may be a part): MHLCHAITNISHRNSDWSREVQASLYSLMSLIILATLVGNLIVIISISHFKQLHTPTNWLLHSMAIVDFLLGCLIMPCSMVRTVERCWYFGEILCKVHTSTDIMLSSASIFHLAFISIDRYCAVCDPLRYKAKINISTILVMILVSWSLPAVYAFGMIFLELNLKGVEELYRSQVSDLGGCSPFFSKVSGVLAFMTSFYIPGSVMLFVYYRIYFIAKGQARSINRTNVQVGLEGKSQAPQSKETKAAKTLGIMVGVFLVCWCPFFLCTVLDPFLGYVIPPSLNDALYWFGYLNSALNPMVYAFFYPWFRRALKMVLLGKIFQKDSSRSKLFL

## NCCc1ccccc1 [2-phenylethylamine]
[1]
  TAAR1 activation: did activate TAAR1
[2]
  percentage of time rats are located in the odor quadrant: 8.0±2.0%
